# Source: patent US4439426A, “Semisynthetic macrolidic antibiotics, intermediate compounds for their preparation and related pharmaceutical compositions containing them” (priority 1981, dated 1984)
# Tests used:
# [1] = tested on: Streptococcus faecalis LRP 7; assay: Bacteriostatic power in solid medium (MIC); format: cell-based; details: Enterococcus faecalis, LRP7; solid medium; read-out: Minimum inhibiting concentration
# Text: (§1) the bacteriostatic power, expressed as the minimum inhibiting concentration (MIC) against both aerobic and anaerobic, Gram positive and Gram negative, bacterial stocks: the related results are reported in the tables 2 and 3.
# [2] = tested on: Proteus vulgaris ATCC 6380 LRP 13; assay: Bacteriostatic power in solid medium (MIC); format: cell-based; details: Proteus vulgaris, ATCC6380; solid medium; read-out: Minimum inhibiting concentration
# Text: as §1
# [3] = tested on: Fusobacteriumnecrophroum ATCC 27852 LRP 210; assay: Bacteriostatic power in solid medium (MIC); format: cell-based; details: solid medium; anaerobic; read-out: Minimum inhibiting concentration
# Text: as §1
# [4] = tested on: Mycoplasma hominis I ATCC 14027 LRP 211; assay: Bacteriostatic power in solid medium (MIC); format: cell-based; details: Metamycoplasma hominis, ATCC14027; solid medium; read-out: Minimum inhibiting concentration
# Text: as §1
# [5] = tested on: Streptococcus pneumoniae ATCC 6303 LRP 53; assay: Bacteriostatic power in solid medium (MIC); format: cell-based; details: Streptococcus pneumoniae, ATCC6303; solid medium; read-out: Minimum inhibiting concentration
# Text: as §1
# [6] = tested on: Streptococcus pyogenes ATCC 8668 LRP 34; assay: Bacteriostatic power in solid medium (MIC); format: cell-based; details: Streptococcus pyogenes, ATCC8668; solid medium; read-out: Minimum inhibiting concentration
# Text: as §1
# [7] = tested on: Haemophilus influenzae ATCC 19418 LRP 213; assay: Bacteriostatic power in solid medium (MIC); format: cell-based; details: Haemophilus influenzae, ATCC19418; solid medium; read-out: Minimum inhibiting concentration
# Text: as §1
# [8] = tested on: Acholeplasma laidlawii ATCC 23206 LRP 204; assay: Bacteriostatic power in solid medium (MIC); format: cell-based; details: Acholeplasma laidlawii, ATCC23206; solid medium; read-out: Minimum inhibiting concentration
# Text: as §1
# [9] = tested on: Streptococcus pneumoniae ATCC 6303 LRP 35; assay: Bacteriostatic power in solid medium (MIC); format: cell-based; details: Streptococcus pneumoniae, ATCC6303; solid medium; read-out: Minimum inhibiting concentration
# Text: as §1
# [10] = tested on: Neisseria gonorrhoeae ATCC 19424 LRP 214; assay: Bacteriostatic power in solid medium (MIC); format: cell-based; details: Neisseria gonorrhoeae, ATCC19424; solid medium; read-out: Minimum inhibiting concentration
# Text: as §1
# [11] = tested on: Klelsiella pneumoniae LRP 54; assay: Bacteriostatic power in solid medium (MIC); format: cell-based; details: solid medium; read-out: Minimum inhibiting concentration
# Text: as §1
# [12] = tested on: Pseudomonas aeruginosa LRP 9; assay: Bacteriostatic power in solid medium (MIC); format: cell-based; details: Pseudomonas aeruginosa, LRP9; solid medium; read-out: Minimum inhibiting concentration
# Text: as §1
# Bacillus subtilis LRP 25 = assay: Bacteriostatic power in solid medium (MIC); format: cell-based; details: Bacillus subtilis, LRP25; solid medium; read-out: Minimum inhibiting concentration
# Text: as §1
# [13] = tested on: Micrococcus luteus ATCC 9341 LRP 6; assay: Bacteriostatic power in solid medium (MIC); format: cell-based; details: Micrococcus luteus, ATCC9341; solid medium; read-out: Minimum inhibiting concentration
# Text: as §1
# [14] = tested on: Streptococcus pneumoniae ATCC 6303 LRP 52; assay: Bacteriostatic power in solid medium (MIC); format: cell-based; details: Streptococcus pneumoniae, ATCC6303; solid medium; read-out: Minimum inhibiting concentration
# Text: as §1
# [15] = tested on: Micrococcus luteus ATCC 15957 LRP 193; assay: Bacteriostatic power in solid medium (MIC); format: cell-based; details: Micrococcus luteus, ATCC15957; solid medium; Erythromycin resistant; read-out: Minimum inhibiting concentration
# Text: as §1
# [16] = tested on: Corynebacterium diphteriae LRP 24; assay: Bacteriostatic power in solid medium (MIC); format: cell-based; details: Corynebacterium, LRP24; solid medium; read-out: Minimum inhibiting concentration
# Text: as §1
# [17] = tested on: Streptococcus faecalis subsp. zymogenes ATCC 12958 LRP 61; assay: Bacteriostatic power in solid medium (MIC); format: cell-based; details: Enterococcus faecalis, ATCC12958; solid medium; read-out: Minimum inhibiting concentration
# Text: as §1
# [18] = tested on: Bacteroides fragilis ATCC 23745 LRP 205; assay: Bacteriostatic power in solid medium (MIC); format: cell-based; details: Bacteroides fragilis, ATCC23745; solid medium; anaerobic; read-out: Minimum inhibiting concentration
# Text: as §1
# [19] = tested on: Streptococcus pyogenes ATCC 8668 LRP 197; assay: Bacteriostatic power in solid medium (MIC); format: cell-based; details: Streptococcus pyogenes, ATCC8668; solid medium; read-out: Minimum inhibiting concentration
# Text: as §1
# [20] = tested on: Staphylococcus aureus ATCC 6538P LRP 39; assay: Bacteriostatic power in solid medium (MIC); format: cell-based; details: Staphylococcus aureus, ATCC6538P; solid medium; read-out: Minimum inhibiting concentration
# Text: as §1
# Escherichia coli LRP 50 = assay: Bacteriostatic power in solid medium (MIC); format: cell-based; details: Escherichia coli, LRP50; solid medium; read-out: Minimum inhibiting concentration
# Text: as §1
# [21] = tested on: Staphylococcus aureus ATCC 14154 LRP 78; assay: Bacteriostatic power in solid medium (MIC); format: cell-based; details: Staphylococcus aureus, ATCC14154; solid medium; Erythromycin resistant; read-out: Minimum inhibiting concentration
# Text: as §1
# [22] = tested on: Staphylococcus aureus ATCC 6538P LRP 14; assay: Bacteriostatic power in solid medium (MIC); format: cell-based; details: Staphylococcus aureus, ATCC6538P; solid medium; Penycilline resistant; read-out: Minimum inhibiting concentration
# Text: as §1
# Shigella sonnei LRP 5 = assay: Bacteriostatic power in solid medium (MIC); format: cell-based; details: LRP5, read-out: Minimum inhibiting concentration
# Text: as §1
# Salmonella typhy LRP 8 = assay: microbe, parasite or virus in culture; format: cell-based; details: LRP8, solid medium, read-out: Minimum inhibiting concentration
# Text: as §1
# [23] = tested on: Clostridium perfrigens ATCC 3624 LRP 206; assay: microbe, parasite or virus in culture; format: cell-based; details: ATCC3624, solid medium, anaerobic, read-out: Minimum inhibiting concentration
# Text: as §1
# [24] = Stability in acidic environment at 25° C. (half-life of initial microbiological activity); format: physicochemical; details: aqueous solution
# Procedure: Stability in acidic environnment at 25° C. of the novel
# Note: t 1/2 represents the time for reducing to one half the initial powe
# of the antibiotic determined by microbiological method through diffusion
# on a plate using the test stock Microccocus luteus (Sarcina lutea) ATCC
# [25] = tested on: Streptococcus pyogenes ATCC 8668 LRP 34; assay: Bacteriostatic power in liquid medium (MIC); format: cell-based; details: Streptococcus pyogenes, ATCC8668; liquid medium; read-out: Minimum inhibiting concentration
# Text: as §1
# [26] = tested on: Streptococcus faecalis subs. zymogenes ATCC 12958 LRP 61; assay: Bacteriostatic power in liquid medium (MIC); format: cell-based; details: Enterococcus faecalis, ATCC12958; liquid medium; read-out: Minimum inhibiting concentration
# Text: as §1
# [27] = tested on: Streptococcus pneumoniae ATCC 6303 LRP 35; assay: Bacteriostatic power in liquid medium (MIC); format: cell-based; details: Streptococcus pneumoniae, ATCC6303; liquid medium; read-out: Minimum inhibiting concentration
# Text: as §1
# [28] = tested on: Corynebacterium diphteriae LRP 24; assay: Bacteriostatic power in liquid medium (MIC); format: cell-based; details: Corynebacterium, LRP24; liquid medium; read-out: Minimum inhibiting concentration
# Text: as §1
# [29] = tested on: Staphylococcus aureus ATCC 6538 P LRP 39; assay: Bacteriostatic power in liquid medium (MIC); format: cell-based; details: Staphylococcus aureus, ATCC6538; liquid medium; read-out: Minimum inhibiting concentration
# Text: as §1
# [30] = tested on: Streptococcus faecalis subs. zymogenes LRP 61; assay: Minimum bactericidal concentration (MBC); format: cell-based
# Text: (§2) the bacterial power, expressed as the minimum bactericidal power (MBC) against some Gram positive aerobic stocks (table 5).
# [31] = tested on: Streptococcus pyogenes ATCC 8668 LRP 34; assay: Minimum bactericidal concentration (MBC); format: cell-based
# Text: as §2
# [32] = tested on: Streptococcus pneumoniae ATCC 6303 LRP 35; assay: Minimum bactericidal concentration (MBC); format: cell-based
# Text: as §2
# [33] = tested on: Corynebacterium diphteriae LRP 24; assay: Minimum bactericidal concentration (MBC); format: cell-based
# Text: as §2
# [34] = tested on: Staphylococcus aureus ATCC 6538 P LRP 39; assay: Minimum bactericidal concentration (MBC); format: cell-based
# Text: as §2
compound,measurement,setting,value
"CC[C@H]1OC(=O)[C@H](C)[C@@H](O[C@H]2C[C@@](C)(OC)[C@@H](O)[C@H](C)O2)[C@H](C)[C@@H](O[C@@H]2O[C@H](C)C[C@H](N(C)C)[C@H]2O)[C@](C)(O)C[C@](C)(F)C(=O)[C@H](C)[C@@H](O)[C@H]1C [P-80203, (8S)-8-fluoroerythromycin B]",MIC,[1],0.195 µg/mL
same,MIC,[2],25 µg/mL
same,MIC,[3],3.12 µg/mL
same,MIC,[4],25 µg/mL
same,MIC,[5],0.024 µg/mL
same,MIC,[6],0.024 µg/mL
same,MIC,[7],6.25 µg/mL
same,MIC,[8],0.195 µg/mL
same,MIC,[9],0.049 µg/mL
same,MIC,[10],0.097 µg/mL
same,MIC,[11],25 µg/mL
same,MIC,[12],25 µg/mL
same,MIC,Bacillus subtilis LRP 25,0.049 µg/mL
same,MIC,[13],0.012 µg/mL
same,MIC,[14],0.024 µg/mL
same,MIC,[15],25 µg/mL
same,MIC,[16],0.006 µg/mL
same,MIC,[17],0.195 µg/mL
same,MIC,[18],0.195 µg/mL
same,MIC,[19],0.049 µg/mL
same,MIC,[20],0.097 µg/mL
same,MIC,Escherichia coli LRP 50,25 µg/mL
same,MIC,[21],25 µg/mL
same,MIC,[22],0.097 µg/mL
same,MIC,Shigella sonnei LRP 5,25 µg/mL
same,MIC,Salmonella typhy LRP 8,25 µg/mL
same,MIC,[23],0.39 µg/mL
same,half-life,[24]; pH 2,3 h
same,half-life,[24]; pH 3,45 h
same,MIC,[25],0.024 µg/mL
same,MIC,[26],0.39 µg/mL
same,MIC,[27],0.049 µg/mL
same,MIC,[28],0.012 µg/mL
same,MIC,[29],0.097 µg/mL
same,MBC/MIC,[30],8
same,MBC,"[30]; Enterococcus faecalis, read-out: Minimum bactericidal concentration (MBC)",3.12 µg/mL
same,MBC/MIC,[31],8
same,MBC,"[31]; Streptococcus pyogenes, ATCC8668, read-out: Minimum bactericidal concentration (MBC)",0.195 µg/mL
same,MBC/MIC,[32],1
same,MBC,"[32]; Streptococcus pneumoniae, ATCC6303, read-out: Minimum bactericidal concentration (MBC)",0.049 µg/mL
same,MBC/MIC,[33],4
same,MBC,"[33]; Corynebacterium, LRP24, read-out: Minimum bactericidal concentration (MBC)",0.049 µg/mL
same,MBC/MIC,[34],32
same,MBC,"[34]; Staphylococcus aureus, ATCC6538, read-out: Minimum bactericidal concentration (MBC)",3.12 µg/mL
